# Assay results as given in article PMC7402526, “An in vitro quantitative systems pharmacology approach for deconvolving mechanisms of drug-induced, multilineage cytopenias” (PLoS Computational Biology, 2020).
# Columns and labels:
# [1] = tested on: hematopoietic stem cells (HSCs); assay: Multi-lineage toxicity assay (MLTA), HSCs: concentration-response and QSP model fit; type: cell-based, human
# How it was run: (§1)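 Drug was added at time 0 to thawed human bone marrow CD34+ cells in SFEM II plus a cytokine cocktail. After 6 days at 37°C, subsets were counted by surface-marker flow with TruCount beads. Vehicle-normalized, donor-pooled data then fed an Emax model separating anti-proliferative from cell-killing effects.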
# [2] = tested on: multi-potent progenitors (MPPs); assay: MLTA, MPPs: concentration-response and QSP model fit; type: cell-based, human; conditions: Homo sapiens, 144 h
# How it was run: as §1
# [3] = tested on: granulocyte-macrophage progenitor (GMPs); assay: MLTA, GMPs: concentration-response and QSP model fit; type: cell-based, human; conditions: Homo sapiens, 144 h, 6 days, normalized to vehicle control, read-out: GMPs normalized cell count
# How it was run: as §1
# [4] = tested on: granulocytes (Gran-lin); assay: MLTA, Gran: concentration-response and QSP model fit; type: cell-based, human
# How it was run: (§2)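 Six-day flow cytometry counts, bead-normalized and expressed relative to the mean of six vehicle wells, underlie each value. Cells were primary human bone marrow CD34+ cells cultured in SFEM II with cytokines promoting multi-lineage differentiation and self-renewal.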
# [5] = tested on: monocytes (monocyte-lin); assay: MLTA, Mono: concentration-response and QSP model fit; type: cell-based, human; conditions: Homo sapiens, Monocyte, 144 h
# How it was run: as §2
# [6] = tested on: lymphocyte progenitors (LymP); assay: MLTA, LymP: concentration-response and QSP model fit; type: cell-based, human; conditions: Homo sapiens, Lymphocyte, 144 h
# How it was run: as §1
# [7] = tested on: B cells (B-lin); assay: MLTA, B-lin: concentration-response and QSP model fit; type: cell-based, human; conditions: Homo sapiens, B-cell, 144 h
# How it was run: as §1
# [8] = tested on: total dead cells (totalDeadCells); assay: MLTA, total dead cells concentration-response; type: cell-based; conditions: Homo sapiens, 144 h, 6 days, normalized to vehicle control, read-out: total_dead normalized cell count
# How it was run: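 Freeze-thawed primary human bone marrow CD34+ cells in SFEM II with cytokine cocktail, drug added day 0, 6 days at 37°C, 5% CO2. Live/dead counts by 17-parameter flow cytometry with DAPI exclusion, bead-normalized, volume-corrected to cells/mL. Normalized per donor to mean of six vehicle wells; 2–7 donors pooled.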
# [9] = cell-killing component, max(0, EmaxT-1)
# [10] = QSP model fit of 6-day MLTA data
smiles,measurement,setting,value
CC(=O)O[C@H]1C(=O)[C@@]2(C)[C@H]([C@H](OC(=O)c3ccccc3)[C@]3(O)C[C@H](OC(=O)[C@H](O)[C@@H](NC(=O)c4ccccc4)c4ccccc4)C(C)=C1C3(C)C)[C@]1(OC(C)=O)CO[C@@H]1C[C@@H]2O [paclitaxel],EC50,"[1]; Homo sapiens, Hematopoietic stem cell, 144 h, QSP model fit of 6-day MLTA data",0.0623 µM
same,activity at 0.0002 µM,"[1]; Homo sapiens, Hematopoietic stem cell, 144 h, dose 0.2 nM, 6 days, normalized to vehicle control, read-out: HSCs normalized cell count",109%
same,activity at 0.001 µM,"[1]; Homo sapiens, Hematopoietic stem cell, 144 h, dose 1 nM, 6 days, normalized to vehicle control, read-out: HSCs normalized cell count",87.5%
same,activity at 0.005 µM,"[1]; Homo sapiens, Hematopoietic stem cell, 144 h, dose 5 nM, 6 days, normalized to vehicle control, read-out: HSCs normalized cell count",118%
same,activity at 0.025 µM,"[1]; Homo sapiens, Hematopoietic stem cell, 144 h, dose 25 nM, 6 days, normalized to vehicle control, read-out: HSCs normalized cell count",28.1%
same,activity at 0.1 µM,"[1]; Homo sapiens, Hematopoietic stem cell, 144 h, dose 100 nM, 6 days, normalized to vehicle control, read-out: HSCs normalized cell count",4.8%
same,activity at 0.5 µM,"[1]; Homo sapiens, Hematopoietic stem cell, 144 h, dose 500 nM, 6 days, normalized to vehicle control, read-out: HSCs normalized cell count",1.08%
same,activity at 2.5 µM,"[1]; Homo sapiens, Hematopoietic stem cell, 144 h, dose 2500 nM, 6 days, normalized to vehicle control, read-out: HSCs normalized cell count",1.34%
same,Emax,"[1]; Homo sapiens, Hematopoietic stem cell, 144 h, parameter from QSP model fitting, read-out: Emax_drug_HSC",119%
same,"EmaxCK,HSC",[1]; [9],0.188 day⁻¹
same,activity at 0.0002 µM,"[2]; dose 0.2 nM, 6 days, normalized to vehicle control, read-out: MPPs normalized cell count",78.7%
same,activity at 0.001 µM,"[2]; dose 1 nM, 6 days, normalized to vehicle control, read-out: MPPs normalized cell count",90%
same,activity at 0.005 µM,"[2]; dose 5 nM, 6 days, normalized to vehicle control, read-out: MPPs normalized cell count",71.3%
same,activity at 0.025 µM,"[2]; dose 25 nM, 6 days, normalized to vehicle control, read-out: MPPs normalized cell count",28%
same,activity at 0.1 µM,"[2]; dose 100 nM, 6 days, normalized to vehicle control, read-out: MPPs normalized cell count",2.32%
same,activity at 0.5 µM,"[2]; dose 500 nM, 6 days, normalized to vehicle control, read-out: MPPs normalized cell count",0.649%
same,activity at 2.5 µM,"[2]; dose 2500 nM, 6 days, normalized to vehicle control, read-out: MPPs normalized cell count",0.406%
same,Emax,"[2]; parameter from QSP model fitting, read-out: Emax_drug_MPP",0.18%
same,activity at 0.0002 µM,[3]; dose 0.2 nM,126%
same,activity at 0.001 µM,[3]; dose 1 nM,119%
same,activity at 0.005 µM,[3]; dose 5 nM,109%
same,activity at 0.025 µM,[3]; dose 25 nM,3.34%
same,activity at 0.1 µM,[3]; dose 100 nM,0.101%
same,activity at 0.5 µM,[3]; dose 500 nM,0.687%
same,activity at 2.5 µM,[3]; dose 2500 nM,0.327%
same,EC50,"[4]; Homo sapiens, 144 h, QSP model fit of 6-day MLTA data",0.0158 µM
same,activity at 0.0002 µM,"[4]; Homo sapiens, 144 h, dose 0.2 nM, 6 days, normalized to vehicle control, read-out: Gran normalized cell count",104%
same,activity at 0.001 µM,"[4]; Homo sapiens, 144 h, dose 1 nM, 6 days, normalized to vehicle control, read-out: Gran normalized cell count",122%
same,activity at 0.005 µM,"[4]; Homo sapiens, 144 h, dose 5 nM, 6 days, normalized to vehicle control, read-out: Gran normalized cell count",92.8%
same,activity at 0.025 µM,"[4]; Homo sapiens, 144 h, dose 25 nM, 6 days, normalized to vehicle control, read-out: Gran normalized cell count",0.105%
same,activity at 0.1 µM,"[4]; Homo sapiens, 144 h, dose 100 nM, 6 days, normalized to vehicle control, read-out: Gran normalized cell count",0.0692%
same,activity at 0.5 µM,"[4]; Homo sapiens, 144 h, dose 500 nM, 6 days, normalized to vehicle control, read-out: Gran normalized cell count",0.0215%
same,activity at 2.5 µM,"[4]; Homo sapiens, 144 h, dose 2500 nM, 6 days, normalized to vehicle control, read-out: Gran normalized cell count",0.0279%
same,Emax,"[4]; Homo sapiens, 144 h, parameter from QSP model fitting, read-out: Emax_drug_Gran",236%
same,"EmaxCK,Gran",[4]; [9],1.360 day⁻¹
same,EC50,[5]; [10],0.03 µM
same,activity at 0.0002 µM,"[5]; dose 0.2 nM, 6 days, normalized to vehicle control, read-out: Mon normalized cell count",90.9%
same,activity at 0.001 µM,"[5]; dose 1 nM, 6 days, normalized to vehicle control, read-out: Mon normalized cell count",93.8%
same,activity at 0.005 µM,"[5]; dose 5 nM, 6 days, normalized to vehicle control, read-out: Mon normalized cell count",77%
same,activity at 0.025 µM,"[5]; dose 25 nM, 6 days, normalized to vehicle control, read-out: Mon normalized cell count",0.638%
same,activity at 0.1 µM,"[5]; dose 100 nM, 6 days, normalized to vehicle control, read-out: Mon normalized cell count",0.419%
same,activity at 0.5 µM,"[5]; dose 500 nM, 6 days, normalized to vehicle control, read-out: Mon normalized cell count",1.04%
same,activity at 2.5 µM,"[5]; dose 2500 nM, 6 days, normalized to vehicle control, read-out: Mon normalized cell count",0.347%
same,Emax,"[5]; parameter from QSP model fitting, read-out: Emax_drug_Mono",25.8%
same,activity at 0.0002 µM,"[6]; dose 0.2 nM, 6 days, normalized to vehicle control, read-out: LymP normalized cell count",122%
same,activity at 0.001 µM,"[6]; dose 1 nM, 6 days, normalized to vehicle control, read-out: LymP normalized cell count",143%
same,activity at 0.005 µM,"[6]; dose 5 nM, 6 days, normalized to vehicle control, read-out: LymP normalized cell count",61.3%
same,activity at 0.025 µM,"[6]; dose 25 nM, 6 days, normalized to vehicle control, read-out: LymP normalized cell count",9.53%
same,activity at 0.1 µM,"[6]; dose 100 nM, 6 days, normalized to vehicle control, read-out: LymP normalized cell count",5.4%
same,activity at 0.5 µM,"[6]; dose 500 nM, 6 days, normalized to vehicle control, read-out: LymP normalized cell count",7.34%
same,activity at 2.5 µM,"[6]; dose 2500 nM, 6 days, normalized to vehicle control, read-out: LymP normalized cell count",9.6%
same,Emax,"[6]; parameter from QSP model fitting, read-out: Emax_drug_LymP",0.16%
same,EC50,[7]; [10],0.0367 µM
same,activity at 0.0002 µM,"[7]; dose 0.2 nM, 6 days, normalized to vehicle control, read-out: B-lin normalized cell count",102%
same,activity at 0.001 µM,"[7]; dose 1 nM, 6 days, normalized to vehicle control, read-out: B-lin normalized cell count",109%
same,activity at 0.005 µM,"[7]; dose 5 nM, 6 days, normalized to vehicle control, read-out: B-lin normalized cell count",75.9%
same,activity at 0.025 µM,"[7]; dose 25 nM, 6 days, normalized to vehicle control, read-out: B-lin normalized cell count",1.34%
same,activity at 0.1 µM,"[7]; dose 100 nM, 6 days, normalized to vehicle control, read-out: B-lin normalized cell count",0.231%
same,activity at 0.5 µM,"[7]; dose 500 nM, 6 days, normalized to vehicle control, read-out: B-lin normalized cell count",0.372%
same,activity at 2.5 µM,"[7]; dose 2500 nM, 6 days, normalized to vehicle control, read-out: B-lin normalized cell count",0.335%
same,Emax,"[7]; parameter from QSP model fitting, read-out: Emax_drug_B",91.4%
same,activity at 0.0002 µM,[8]; dose 0.2 nM,105%
same,activity at 0.001 µM,[8]; dose 1 nM,113%
same,activity at 0.005 µM,[8]; dose 5 nM,115%
same,activity at 0.025 µM,[8]; dose 25 nM,75.5%
same,activity at 0.1 µM,[8]; dose 100 nM,47.5%
same,activity at 0.5 µM,[8]; dose 500 nM,40.7%
same,activity at 2.5 µM,[8]; dose 2500 nM,46.1%
